Tests used:
[1] = target: T1, human adenosine receptor A1 (A1R) (Homo sapiens, UniProt P30542); assay: Adenosine receptor binding assay, radioligand competitive binding, [3H]DPCPX; conditions: membrane homogenates from CHO cells transfected with A1R, 1 nM [3H]DPCPX
T1 construct: host or cells: CHO cells (membrane homogenates)
T1 sequence (P30542 1-326): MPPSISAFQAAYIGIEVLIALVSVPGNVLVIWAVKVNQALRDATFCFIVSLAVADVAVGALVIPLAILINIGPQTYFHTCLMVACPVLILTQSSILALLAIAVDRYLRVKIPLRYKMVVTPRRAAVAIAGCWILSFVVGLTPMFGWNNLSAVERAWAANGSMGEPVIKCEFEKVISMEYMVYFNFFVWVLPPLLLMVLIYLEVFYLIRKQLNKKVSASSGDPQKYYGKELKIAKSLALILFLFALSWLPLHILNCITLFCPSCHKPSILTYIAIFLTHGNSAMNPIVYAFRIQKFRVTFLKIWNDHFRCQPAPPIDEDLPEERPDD
Protocol: (§1) Binding affinity of test compounds to four human adenosine receptors, A1, A2A, A2B and A3 was determined in radioligand competitive binding assay (conducted by Cerep, France) using following protocols. For A1 receptor (A1R), membrane homogenates from CHO cells transfected with A1R were incubated for 60 min at 22° C. with 1 nM [3H]DPCPX in the absence or presence of the test compound in a buffer containing 50 mM Tris-HCl (pH 7.4), 5 mM MgCl2, 1 mM EDTA/Tris and 2 UI/mL ADA. For A2AR, membrane homogenates from HEK293 cells transfected with A2AR were incubated for 120 min at 22° C. with 6 nM [3H]CGS21680 in the absence or presence of the test compound in a buffer containing 50 mM Tris-HCl (pH 7.4), 10 mM MgCl2, and 2 UI/mL ADA. For A2B receptor (A2BR), membrane homogenates from HEK293 cells transfected with A2BR were incubated for 60 min at 22° C. with 5 nM [3H]CPX in the absence or presence of the test compound in a buffer containing 10 mM Hepes/Tris (pH 7), 1 mM MgCl2, and 1 mM EDTA. For A3 receptor (A3R), membrane homogenates from HEK293 cells transfected with A3R were incubated for 120 min at 22° C. with 0.15 nM [125I]AB-MECA in the absence or presence of the test compound in a buffer containing 50 mM Tris-HCl (pH 7.4), 5 mM MgCl2, 1 mM EDTA and 2 UI/mL ADA. Nonspecific binding was determined in the presence of unlabeled 1 μM DPCPX, 10 μM NECA, 100 μM NECA, and 1 μM IB-MECA in A1R, A2AR, A2BR, A3R binding assays, respectively. Following incubation, the samples are rapidly filtered and washed with ice-cold 50 mM Tris-HCl. Then filters are dried and counted for radioactivity in a scintillation counter (Topcount, Packard) using a scintillation cocktail (Microscint 0, Packard). Duplicate experiments were performed for each assay. The results are expressed as a percent inhibition of control radioligand specific binding.

[2] = target: human A2A receptor (A2AR) (Homo sapiens, UniProt P29274); assay: Luciferase reporter assay (HEK293-A2AR-luc2p/CRE/Hygro cells, 3 nM CGS21680); format: cell-based; conditions: 3 nM CGS21680, 5 h incubation
Chain of human A2A receptor (A2AR) (P29274 whole entry): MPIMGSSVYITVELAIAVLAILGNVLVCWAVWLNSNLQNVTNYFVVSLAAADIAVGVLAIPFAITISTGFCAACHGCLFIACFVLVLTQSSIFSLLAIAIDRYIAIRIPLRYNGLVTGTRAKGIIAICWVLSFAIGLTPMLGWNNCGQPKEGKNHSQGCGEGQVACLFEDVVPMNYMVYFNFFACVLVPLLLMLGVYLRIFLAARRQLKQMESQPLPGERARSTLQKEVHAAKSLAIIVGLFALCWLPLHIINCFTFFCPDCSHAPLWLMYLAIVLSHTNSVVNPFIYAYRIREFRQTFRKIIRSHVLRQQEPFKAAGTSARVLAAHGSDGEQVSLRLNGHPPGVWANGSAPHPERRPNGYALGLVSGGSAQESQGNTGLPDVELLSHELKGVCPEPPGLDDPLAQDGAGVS
Method in brief: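 Antagonist (0.1–10000 nM) and 3 nM CGS21680 were co-added for 5 h to stable HEK293-A2AR-luc2p/CRE cells, 18 h after seeding in 1% FBS medium containing adenosine deaminase. Luminescence was normalized to agonist alone (100%), and IC50 came from the dose–inhibition curve.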

[3] = target: T2, human adenosine receptor A2A (A2AR) (Homo sapiens, UniProt P29274); assay: Adenosine receptor binding assay, radioligand competitive binding, [3H]CGS21680; conditions: membrane homogenates from HEK293 cells transfected with A2AR, 6 nM [3H]CGS21680
T2 construct: host or cells: HEK293 cells (membrane homogenates)
T2 sequence (P29274 whole entry): as above
Protocol: as §1

Structure (SMILES)	Ki [1]	IC50 [2]	Ki [3]
CCCC(C(=O)N1CCN(c2ccc(OCCOC)cc2)CC1)n1ncc2c1nc(N)n1nc(-c3ccco3)nc21 (single isomer, unassigned) [Compound A5b, 2-(5-amino-2-(furan-2-yl)-7H-pyrazolo[4,3-e][1,2,4]triazolo[1,5-c]pyrimidin-7-yl)-1-(4-(4-(2-methoxyethoxy)phenyl)piperazin-1-yl)pentan-1-one]	310 nM	50 nM	6 nM
CCCCC(C(=O)N1CCN(c2ccc(OCCOC)cc2)CC1)n1ncc2c1nc(N)n1nc(-c3ccco3)nc21 (single isomer, unassigned) [Compound A10b, 2-(5-amino-2-(furan-2-yl)-7H-pyrazolo[4,3-e][1,2,4]triazolo[1,5-c]pyrimidin-7-yl)-1-(4-(4-(2-methoxyethoxy)phenyl)piperazin-1-yl)hexan-1-one]	260 nM	143 nM	5.6 nM
COCCOc1ccc(N2CCN(C(=O)C(c3ccccc3)n3ncc4c3nc(N)n3nc(-c5ccco5)nc43)CC2)cc1 (single isomer, unassigned) [Compound A13a]	190 nM	26.9 nM	6.2 nM
COCCOc1ccc(N2CCN(C(=O)C(CC(C)C)n3ncc4c3nc(N)n3nc(-c5ccco5)nc43)CC2)cc1 (single isomer, unassigned) [Compound A16a]	57 nM	0.3 nM	1.5 nM
COCCOc1ccc(N2CCN(C(=O)C(CC(C)C)n3ncc4c3nc(N)n3nc(-c5ccco5)nc43)CC2)cc1 (single isomer, unassigned) [Compound A16b]	770 nM	96.4 nM	15 nM
CC(C)CC(C(=O)N1CCN(c2ccc(F)cc2F)CC1)n1ncc2c1nc(N)n1nc(-c3ccco3)nc21 (single isomer, unassigned) [Compound A22b]	18 nM	0.6 nM	1.7 nM
CCCC(C(=O)N1CCN(c2ccc(OCCOC)cc2F)CC1)n1ncc2c1nc(N)n1nc(-c3ccco3)nc21 (single isomer, unassigned) [Compound A24a]	120 nM	1 nM	1.4 nM
CCCC(C(=O)N1CCN(c2ccc(OCCOC)cc2F)CC1)n1ncc2c1nc(N)n1nc(-c3ccco3)nc21 (single isomer, unassigned) [Compound A24b]	1200 nM	78.8 nM	8.5 nM
CCCC(C(=O)N1CCN(c2ccc(OCCN(C)C)cc2)CC1)n1ncc2c1nc(N)n1nc(-c3ccco3)nc21 (single isomer, unassigned) [Compound A39b]	79 nM	3.6 nM	2 nM
COCCOc1ccc(N2CCN(C(=O)C(c3ccccc3F)n3ncc4c3nc(N)n3nc(-c5ccco5)nc43)CC2)cc1 (single isomer, unassigned) [Compound A43b]	54 nM	0.4 nM	1.2 nM
Nc1nc2c(cnn2C(C(=O)N2CCc3ccccc3C2)c2ccccc2)c2nc(-c3ccco3)nn12 (single isomer, unassigned) [Compound B3b]	150 nM	0.5 nM	0.89 nM
COCCOc1ccc(N2CCN(C(=O)C(C)n3cc4c(nc(N)n5nc(-c6ccco6)nc45)n3)CC2)cc1 (single isomer, unassigned) [Compound C1a]	< 0.5 nM	57.1 nM	6.2 nM
COCCOc1ccc(N2CCN(C(=O)C(C)n3cc4c(nc(N)n5nc(-c6ccco6)nc45)n3)CC2)cc1 (single isomer, unassigned) [Compound C1b]	10 nM	12.7 nM	2.5 nM
COCCOc1ccc(N2CCN(C(=O)[C@](C)(c3ccccc3)n3ncc4c3nc(N)n3nc(-c5ccco5)nc43)CC2)cc1 [Compound A63a, (S)-2-(5-amino-2-(furan-2-yl)-7H-pyrazolo[4,3-e][1,2,4]triazolo[1,5-c]pyrimidin-7-yl)-1-(4-(4-(2-methoxyethoxy)phenyl)piperazin-1-yl)-2-phenylpropan-1-one]	1130 nM	8 nM	3.1 nM
COCCOCCOc1ccc(N2CCN(C(=O)C(CC(C)C)n3cc4c(nc(N)n5nc(-c6ccco6)nc45)n3)CC2)cc1 (stereo not drawn) [Compound C18, 2-(5-amino-2-(furan-2-yl)-8H-pyrazolo[4,3-e][1,2,4]triazolo[1,5-c]pyrimidin-8-yl)-1-(4-(4-(2-(2-methoxyethoxy)ethoxy)phenyl)piperazin-1-yl)-4-methylpentan-1-one]	–	90.2 nM	–
CC(C(=O)N1CCN(c2ccc(OCCN(C)C)cc2)CC1)n1cc2c(nc(N)n3nc(-c4ccco4)nc23)n1 (stereo not drawn) [Compound C19, 2-(5-amino-2-(furan-2-yl)-8H-pyrazolo[4,3-e][1,2,4]triazolo[1,5-c]pyrimidin-8-yl)-1-(4-(4-(2-(dimethylamino)ethoxy)phenyl)piperazin-1-yl)propan-1-one]	–	46.3 nM	–
COCCOc1ccc(N2CCN(C(=O)C(Cc3ccccc3)n3cc4c(nc(N)n5nc(-c6ccco6)nc45)n3)CC2)cc1 (stereo not drawn) [Compound C20, 2-(5-amino-2-(furan-2-yl)-8H-pyrazolo[4,3-e][1,2,4]triazolo[1,5-c]pyrimidin-8-yl)-1-(4-(4-(2-methoxyethoxy)phenyl)piperazin-1-yl)-3-phenylpropan-1-one]	–	2070 nM	–
CCCC(C(=O)N1CCN(c2ccc(F)cc2F)CC1)n1cc2c(nc(N)n3nc(-c4ccco4)nc23)n1 (stereo not drawn) [Compound C21, 2-(5-amino-2-(furan-2-yl)-8H-pyrazolo[4,3-e][1,2,4]triazolo[1,5-c]pyrimidin-8-yl)-1-(4-(2,4-difluorophenyl)piperazin-1-yl)pentan-1-one]	–	100 nM	–
COCCOCCOc1ccc(N2CCN(C(=O)C(C3CC3)n3cc4c(nc(N)n5nc(-c6ccco6)nc45)n3)CC2)cc1 (stereo not drawn) [Compound C22, 2-(5-amino-2-(furan-2-yl)-8H-pyrazolo[4,3-e][1,2,4]triazolo[1,5-c]pyrimidin-8-yl)-2-cyclopropyl-1-(4-(4-(2-(2-methoxyethoxy)ethoxy)phenyl)piperazin-1-yl)ethan-1-one]	–	12.8 nM	–
CC(C)CC(C(=O)N1CCN(c2ccc(F)cc2F)CC1)n1cc2c(nc(N)n3nc(-c4ccco4)nc23)n1 (stereo not drawn) [Compound C23, 2-(5-amino-2-(furan-2-yl)-8H-pyrazolo[4,3-e][1,2,4]triazolo[1,5-c]pyrimidin-8-yl)-1-(4-(2,4-difluorophenyl)piperazin-1-yl)-4-methylpentan-1-one]	–	69.6 nM	–
CNCCOc1ccc(N2CCN(C(=O)C(C)n3cc4c(nc(N)n5nc(-c6ccco6)nc45)n3)CC2)cc1 (stereo not drawn) [Compound C24, 2-(5-amino-2-(furan-2-yl)-8H-pyrazolo[4,3-e][1,2,4]triazolo[1,5-c]pyrimidin-8-yl)-1-(4-(4-(2-(methylamino)ethoxy)phenyl)piperazin-1-yl)propan-1-one]	–	35.5 nM	–
COCCOc1ccc(N2CCN(C(=O)C(C)(c3ccccc3)n3cc4c(nc(N)n5nc(-c6ccco6)nc45)n3)CC2)cc1 (stereo not drawn) [Compound C25, 2-(5-amino-2-(furan-2-yl)-8H-pyrazolo[4,3-e][1,2,4]triazolo[1,5-c]pyrimidin-8-yl)-1-(4-(4-(2-methoxyethoxy)phenyl)piperazin-1-yl)-2-phenylpropan-1-one]	–	21.7 nM	–
COCCOc1ccc(N2CCN(CCn3ncc4c3nc(N)n3nc(-c5ccco5)nc43)CC2)cc1 [Preladenant, preladenant, reference compound]	337 nM	–	–

— patent US20210300936A1, “PYRAZOLOTRIAZOLOPYRIMIDINE DERIVATIVES AS A2A RECEPTOR ANTAGONIST” (BEIGENE, LTD., priority 2018, published 2021)
